{"source": "PubChem BioAssay AID1259409", "about": "(Chemical Carcinogenesis Research Information System (CCRIS), 2018)", "origin": "cited, not measured here", "system": "rodent chemically induced tumor inhibition, incidence and multiplicity", "test": "CCRIS tumor inhibitor studies"}
{"molecule": "CC1=C(/C=C/C(C)=C/C=C/C(C)=C/C(=O)Nc2ccc(O)cc2)C(C)(C)CCC1", "values": [{"measurement": "tumour outcome (control, treated, inhibition, significance)", "setting": "Carcinogen: 7,12-DIMETHYLBENZ[A]ANTHRACENE, 57-97-6, Dose [Inhibitor]: 1.5 MMOL/KG CHOW DIET IN 25 ML OF THE VEHICLE (ETHANOL/TRICAPRYLIN 1:4 (VOL/VOL) PLUS 6% (WT/VOL) ALPHA-TOCOPHEROL) BEGI, Route [Inhibitor]: ORAL, Species: RAT, Strain/Sex: SPRAGUE-DAWLEY/FEMALE, Target Tissue: Type of Lesion: MAMMARY GLAND: TUMOR, Dose [Carcinogen]: 75 MG/KG BW IN 1.0 ML SESAME OIL ONCE, Promoter: NONE USED", "result": "70%, 30%, 57%, not significant"}, {"measurement": "tumour outcome (control, treated, inhibition, significance)", "setting": "Carcinogen: 7,12-DIMETHYLBENZ[A]ANTHRACENE, 57-97-6, Dose [Inhibitor]: 2 MMOL/KG DIET DAILY FROM 10 D THROUGH 12 WK AFTER CARCINOGEN DOSE FOLLOWED BY 16 WK OBSERVATION PERIOD (STUDY DURATION:, Route [Inhibitor]: ORAL, Species: RAT, Strain/Sex: SPRAGUE-DAWLEY/FEMALE, Target Tissue: Type of Lesion: MAMMARY GLAND: TUMOR, Dose [Carcinogen]: 10 MG/RAT ONCE, Promoter: NONE USED", "result": "8/15 (53%), 7/15 (47%), 11%, not significant"}, {"measurement": "tumour outcome (control, treated, inhibition, significance)", "setting": "Carcinogen: 7,12-DIMETHYLBENZ[A]ANTHRACENE, 57-97-6, Dose [Inhibitor]: 2 MMOL/KG DIET DAILY FROM 29 D PRIOR THROUGH 12 WK AFTER CARCINOGEN DOSE FOLLOWED BY 16 WK OBSERVATION PERIOD (STUDY DUR, Route [Inhibitor]: ORAL, Species: RAT, Strain/Sex: SPRAGUE-DAWLEY/FEMALE, Target Tissue: Type of Lesion: MAMMARY GLAND: TUMOR, Dose [Carcinogen]: 10 MG/RAT ONCE, Promoter: NONE USED", "result": "8/15 (53%), 9/15 (60%), -13%, not significant"}, {"measurement": "tumour outcome (control, treated, inhibition, significance)", "setting": "Carcinogen: DIETHYLNITROSAMINE [55-18-5], Dose [Inhibitor]: 280 NM/100 G BW WK FOR 3 WK BETWEEN 4TH AND 25TH WK AFTER CARCINOGEN (STUDY DURATION: 50 WK), Route [Inhibitor]: IP INJECTION, Species: RAT, Strain/Sex: F344/MALE, Target Tissue: Type of Lesion: LIVER: HEPATOCELLULAR CARCINOMA, Dose [Carcinogen]: 150 MG/KG ONCE, Promoter: 2-ACETYLAMINOFLUORENE [53-96-3]", "result": "14/18 (78%), 6/20 (30%), 62%, p= 0.0044"}, {"measurement": "tumour outcome (control, treated, inhibition, significance)", "setting": "Carcinogen: DIETHYLNITROSAMINE, 55-18-5, Dose [Inhibitor]: 0, 98 MG/KG DIET FOR DURATION OF STUDY BEGINNING 1 WK PRIOR TO CARCINOGEN TREATMENT (STUDY DURATION: 25 WK), Route [Inhibitor]: ORAL, Species: HAMSTER, Strain/Sex: SYRIAN/MALE, Target Tissue: Type of Lesion: LUNG: CARCINOMA, Dose [Carcinogen]: 17.8 MG/KG BW 2/WK FOR 20 WK, Promoter: NONE USED", "result": "50%, 45%, 10%, not significant"}, {"measurement": "tumour outcome (control, treated, inhibition, significance)", "setting": "Carcinogen: DIETHYLNITROSAMINE, 55-18-5, Dose [Inhibitor]: 0, 98 MG/KG DIET FOR DURATION OF STUDY BEGINNING 1 WK PRIOR TO CARCINOGEN TREATMENT (STUDY DURATION: 25 WK), Route [Inhibitor]: ORAL, Species: HAMSTER, Strain/Sex: SYRIAN/MALE, Target Tissue: Type of Lesion: TRACHEA: PAPILLOMA, Dose [Carcinogen]: 17.8 MG/KG BW 2/WK FOR 20 WK, Promoter: NONE USED", "result": "95%, 95%, 0%, not significant"}, {"measurement": "tumour outcome (control, treated, inhibition, significance)", "setting": "Carcinogen: DIETHYLNITROSAMINE, 55-18-5, Dose [Inhibitor]: 0, 196 MG/KG DIET FOR DURATION OF STUDY BEGINNING 1 WK PRIOR TO CARCINOGEN TREATMENT (STUDY DURATION: 25 WK), Route [Inhibitor]: ORAL, Species: HAMSTER, Strain/Sex: SYRIAN/MALE, Target Tissue: Type of Lesion: LUNG: CARCINOMA, Dose [Carcinogen]: 17.8 MG/KG BW 2/WK FOR 20 WK, Promoter: NONE USED", "result": "60%, 50%, 17%, not significant"}, {"measurement": "tumour outcome (control, treated, inhibition, significance)", "setting": "Carcinogen: DIETHYLNITROSAMINE, 55-18-5, Dose [Inhibitor]: 0, 196 MG/KG DIET FOR DURATION OF STUDY BEGINNING 1 WK PRIOR TO CARCINOGEN TREATMENT (STUDY DURATION: 25 WK), Route [Inhibitor]: ORAL, Species: HAMSTER, Strain/Sex: SYRIAN/MALE, Target Tissue: Type of Lesion: TRACHEA: PAPILLOMA, Dose [Carcinogen]: 17.8 MG/KG BW 2/WK FOR 20 WK, Promoter: NONE USED", "result": "100%, 100%, 0%, not significant"}, {"measurement": "tumour outcome (control, treated, inhibition, significance)", "setting": "Carcinogen: DIMETHYLBENZ[A]ANTHRACENE, 57-97-6, Dose [Inhibitor]: 0, 782 MG/KG DIET IN VEHICLE 2 MO PRIOR TO CARCINOGEN DOSE AND CONTINUED UNTIL CARCINOGEN ADMINISTRATION (STUDY DURATION, Route [Inhibitor]: ORAL, Species: RAT, Strain/Sex: CD-1/FEMALE, Target Tissue: Type of Lesion: MAMMARY GLAND: ADENOCARCINOMA, Dose [Carcinogen]: 20 MG IN 1 ML SESAME OIL ONCE, Promoter: NONE USED", "result": "63%, 71%, -13%, not calculated"}, {"measurement": "tumour outcome (control, treated, inhibition, significance)", "setting": "Carcinogen: DIMETHYLBENZ[A]ANTHRACENE, 57-97-6, Dose [Inhibitor]: 0, 782 MG/KG DIET IN VEHICLE 2 MO PRIOR TO CARCINOGEN DOSE AND CONTINUED UNTIL CARCINOGEN ADMINISTRATION (STUDY DURATION, Route [Inhibitor]: ORAL, Species: RAT, Strain/Sex: CD-1/FEMALE, Target Tissue: Type of Lesion: MAMMARY GLAND: ADENOMA, Dose [Carcinogen]: 20 MG IN 1 ML SESAME OIL ONCE, Promoter: NONE USED", "result": "17%, 43%), -153%, not calculated"}, {"measurement": "tumour outcome (control, treated, inhibition, significance)", "setting": "Carcinogen: METHYLNITROSOUREA, 684-93-5, Dose [Inhibitor]: 0, 782 MG/KG DIET IN VEHICLE 2 MO PRIOR TO CARCINOGEN DOSE AND CONTINUED FOR STUDY DURATION (STUDY DURATION: 8 MO), Route [Inhibitor]: ORAL, Species: RAT, Strain/Sex: CD-1/FEMALE, Target Tissue: Type of Lesion: MAMMARY GLAND: ADENOCARCINOMA, Dose [Carcinogen]: 50 MG/KG BW ONCE, Promoter: NONE USED", "result": "57%, 23%, 60%, p<0.05"}, {"measurement": "tumour outcome (control, treated, inhibition, significance)", "setting": "Carcinogen: METHYLNITROSOUREA, 684-93-5, Dose [Inhibitor]: 0, 782 MG/KG DIET IN VEHICLE 2 MO PRIOR TO CARCINOGEN DOSE AND CONTINUED FOR STUDY DURATION (STUDY DURATION: 8 MO), Route [Inhibitor]: ORAL, Species: RAT, Strain/Sex: CD-1/FEMALE, Target Tissue: Type of Lesion: MAMMARY GLAND: BENIGN TUMOR, Dose [Carcinogen]: 50 MG/KG BW ONCE, Promoter: NONE USED", "result": "10%, 3%, 70%, not calculated"}, {"measurement": "tumour outcome (control, treated, inhibition, significance)", "setting": "Carcinogen: METHYLNITROSOUREA, 684-93-5, Dose [Inhibitor]: 0, 782 MG/KG DIET IN VEHICLE 2 MO PRIOR TO CARCINOGEN DOSE AND CONTINUED UNTIL CARCINOGEN ADMINISTRATION (STUDY DURATION, Route [Inhibitor]: ORAL, Species: RAT, Strain/Sex: CD-1/FEMALE, Target Tissue: Type of Lesion: MAMMARY GLAND: ADENOCARCINOMA, Dose [Carcinogen]: 50 MG/KG BW ONCE, Promoter: NONE USED", "result": "57%, 66%, -16%, not calculated"}]}
